Key:
oxytocin receptor [1] = molecular target: T1, oxytocin receptor (Rattus norvegicus, UniProt P70536); assay type: binding; details: mammary gland patches; excess of oxytocin 1 μM
T1 sequence (P70536 1-388): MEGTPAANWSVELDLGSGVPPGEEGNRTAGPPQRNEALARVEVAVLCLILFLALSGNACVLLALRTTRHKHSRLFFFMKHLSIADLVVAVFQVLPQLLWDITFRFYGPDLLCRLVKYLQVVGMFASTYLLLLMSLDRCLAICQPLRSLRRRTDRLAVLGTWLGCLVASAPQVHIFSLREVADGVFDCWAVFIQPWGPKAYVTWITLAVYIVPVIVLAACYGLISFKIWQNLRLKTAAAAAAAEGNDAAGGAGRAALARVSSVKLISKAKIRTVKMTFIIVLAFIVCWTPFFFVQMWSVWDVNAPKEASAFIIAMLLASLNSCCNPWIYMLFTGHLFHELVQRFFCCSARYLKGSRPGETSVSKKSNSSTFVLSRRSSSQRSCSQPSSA

oxytocin receptor [2] = molecular target: T2, oxytocin receptor (Homo sapiens, UniProt P30559); experiment: Binding affinity of ligands for the oxytocin receptor
T2 sequence (P30559 1-389): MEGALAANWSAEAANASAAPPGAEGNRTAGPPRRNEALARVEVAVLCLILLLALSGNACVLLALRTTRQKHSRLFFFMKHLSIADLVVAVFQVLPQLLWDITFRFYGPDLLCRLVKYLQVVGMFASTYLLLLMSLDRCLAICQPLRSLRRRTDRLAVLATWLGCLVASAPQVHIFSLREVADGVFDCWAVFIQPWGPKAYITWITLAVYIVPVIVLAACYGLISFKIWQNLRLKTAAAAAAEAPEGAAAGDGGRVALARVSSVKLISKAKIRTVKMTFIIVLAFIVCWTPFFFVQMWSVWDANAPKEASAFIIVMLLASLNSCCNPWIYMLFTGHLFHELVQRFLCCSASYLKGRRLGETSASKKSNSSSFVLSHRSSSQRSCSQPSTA

dopamine D2 receptors = dopamine D2 receptors (Homo sapiens, UniProt P14416); assay type: binding; details: read-out: IC50, inhibition of the FRET signal by increasing concentrations of NAPS; Cos7 cells transfected with D2 receptors; NAPS(Lumi4-Tb) (8) 1 nM and NAPS(d1) (9) 5 nM
dopamine D2 receptors, sequence (P14416 whole entry): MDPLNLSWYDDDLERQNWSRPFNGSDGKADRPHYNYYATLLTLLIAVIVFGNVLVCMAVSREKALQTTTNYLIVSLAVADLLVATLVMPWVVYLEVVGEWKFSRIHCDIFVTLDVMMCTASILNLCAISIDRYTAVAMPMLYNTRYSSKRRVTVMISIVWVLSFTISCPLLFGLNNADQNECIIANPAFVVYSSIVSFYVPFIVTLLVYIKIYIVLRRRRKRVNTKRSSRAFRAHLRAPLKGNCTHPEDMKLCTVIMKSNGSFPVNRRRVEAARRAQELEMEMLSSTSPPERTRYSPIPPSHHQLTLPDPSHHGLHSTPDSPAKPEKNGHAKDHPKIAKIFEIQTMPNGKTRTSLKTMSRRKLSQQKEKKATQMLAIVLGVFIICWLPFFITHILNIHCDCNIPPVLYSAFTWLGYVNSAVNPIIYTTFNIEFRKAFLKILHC

Compound	Effect on the FRET signal between donor and acceptor antagonists (oxytocin receptor [1])	Affinity for the oxytocin receptor (in words) (oxytocin receptor [2])	IC50 (dopamine D2 receptors) [nM]
glucagon-like peptide 1 [GLP1]	not affected	no affinity	–
HO-[Thr[4],Orn[8](Alexa-647)]VT [compound 6]	–	high affinities	–
d(CH2)5[DTyr(Et)2,Ile4,Eda(Alexa-647)9]VP [compound 14]	–	poor affinity	–
Nc1ccc(CCN2CN(c3ccccc3)C3(CCN(CCCC(=O)c4ccc(F)cc4)CC3)C2=O)cc1 [NAPS, N-(p-aminophenethyl)spiperone]	–	–	1.9
HO-[Thr[4],Orn[8](Eu-PBBP)]VT [compound 5]	–	high affinities	–

Reference: paper PMC3506176 (Nature chemical biology, 2010)
